From PubChem BioAssay (NCI)
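Grown in 96-well plates, cells were treated for 48 hours with each compound at five concentrations. Insufficient inhibition: endpoint recorded as highest concentration tested. The concentration for full growth arrest is given as TGI.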 Where a SMILES comes first, the peptide text is derived from it. [ ]: non-standard residue; d: D form. The star is where a group is joined. Cbz = O=C(OCc1ccccc1)*; Aib = CC(C)(N)C(=O)O; OBn = c1ccc(CO*)cc1

Columns and labels:
Experiment in all cases: NCI-60 cell line screen, 48 h
[1] = tested on: ACHN renal
[2] = tested on: SF-539 CNS
[3] = tested on: OVCAR-3 ovarian
[4] = tested on: RPMI-8226 leukemia
[5] = tested on: SF-295 CNS
[6] = tested on: UACC-62 melanoma

Row | Compound | TGI [1] | TGI [2] | TGI [3] | TGI [4] | TGI [5] | TGI [6]
1 | O=[N+]([O-])c1cc2oc(CSc3ccccc3)nc2cc1Cl | > 100 µM | > 100 µM | 73.9 µM | > 100 µM | 93.9 µM | > 100 µM
2 | N#Cc1sc2c(c1OC(=O)c1ccc(C(F)(F)F)cc1)c(=O)n(-c1ccccc1)c(=S)n2-c1ccccc1 | 93.5 µM | 59 µM | 55.5 µM | 45.9 µM | 71.4 µM | 50.9 µM
3 | Cc1ccsc1/C=N/Nc1cnccn1 | > 100 µM |  | > 100 µM | > 100 µM | > 100 µM | > 100 µM
4 | CC1(C)C=CC(=O)C(O)C(C)(C)C1=O (stereo unspecified) | > 100 µM | > 100 µM | 79.6 µM | > 100 µM | > 100 µM | > 100 µM
5 | C[C@@H]1CCC2[C@@H](C)[C@@H](O[C@H]3O[C@@H]4O[C@@]5(C)CCC6[C@H](C)CCC([C@H]3C)[C@]64OO5)O[C@@H]3O[C@@]4(C)CCC1[C@@]23OO4 (stereo partly specified) | > 25 µM | > 25 µM | > 25 µM | > 7.26 µM | > 25 µM | > 25 µM
6 | C=C(C)CNCCN | > 100 µM |  | > 100 µM |  | > 100 µM | > 100 µM
7 | CC(C)(C)c1ccc2c(c1)C#Cc1cc3c(cc1OCCCO2)C#Cc1cc(C(C)(C)C)ccc1OCCCO3 | > 100 µM | > 100 µM | > 100 µM | > 100 µM | > 100 µM | > 100 µM
8 | Cn1ncc2c(NCc3ccccc3)ncnc21 | > 100 µM | > 100 µM | > 100 µM | > 100 µM | > 100 µM | > 100 µM
9 | CN(C)Cc1cc(C(=O)/C=C/c2ccc([N+](=O)[O-])cc2)cc(CN(C)C)c1O | 10.2 µM | 40.5 µM | 20.6 µM | 6.98 µM | 38.9 µM | 33.3 µM
10 | COc1cc(Nc2ccc3c(c2)CCC3)nc(OC)n1 | 73.7 µM | > 100 µM | > 100 µM | 40.9 µM | > 100 µM | > 100 µM
11 | Cc1c2c(c(C)n1-c1ccccc1)C(=O)N(CCN1CCN(c3cccc(C(F)(F)F)c3)CC1)C2=O | > 100 µM | > 100 µM | > 100 µM | > 100 µM | > 100 µM | > 100 µM
12 | N#CC(c1ccccc1)N(CCOCCOCCN(C(=O)c1ccccc1)C(C#N)c1ccccc1)C(=O)c1ccccc1 (stereo unspecified) | > 100 µM | > 100 µM | > 100 µM |  | > 100 µM | > 100 µM
13 | O=C(CC(=O)Nc1ccccc1)NNC(Sc1ccccc1)c1cc(N=Nc2ccc(Br)cc2)ccc1O (stereo unspecified) | > 10 µM | 7.91 µM | > 10 µM | > 10 µM | > 10 µM | 9.81 µM
14 | Cc1cc(OP2(=O)NCc3ncccc3O2)ccc1Cl (stereo unspecified) | > 100 µM | > 100 µM | > 100 µM | > 100 µM | > 100 µM | > 100 µM
15 | COc1cc(C=O)ccc1O | > 100 µM | > 100 µM | > 100 µM | > 100 µM | > 100 µM | 
16 | Cc1ccc(/C=C2/N=C(N/N=C\C(O)C(O)C(O)C(O)CO)NC2=O)cc1 (stereo unspecified) | > 100 µM | > 100 µM | > 100 µM | > 100 µM | > 100 µM | 
17 | COc1ccc(N2C(=O)C3c4[nH]c5cc(C)ccc5c4C4CCC(C(C)(C)C)CC4C3C2=O)cc1 (stereo unspecified) | > 10 µM | > 10 µM | > 10 µM | > 10 µM | > 10 µM | > 10 µM
18 | Clc1sc(Cl)c2c1[C@@H](Cl)C[C@@H]2Br | > 100 µM |  |  |  | > 100 µM | > 100 µM
19 | COc1cc2c(cc1OCCCN1C(=O)c3cccc4cccc(c34)C1=O)N=C[C@@H]1CCCN1C2=O | > 63.4 µM | > 100 µM | > 85.1 µM | > 50.2 µM | > 100 µM | > 100 µM
20 | CC(NC(=O)C(C)(C)NC(=O)C(CC(=O)OCc1ccccc1)NC(=O)OCc1ccccc1)C(N)=O (stereo unspecified) (Cbz-Asp(OBn)-[Aib]-Ala-NH2; configuration not given here) | > 100 µM | > 100 µM | > 100 µM | > 100 µM | > 100 µM | > 100 µM
21 | O=C1/C(=C/c2ccc(Cl)cc2)CCCc2ccccc21 | 31.1 µM | 31.8 µM | 39.4 µM | 69 µM | 31.5 µM | 27.5 µM
22 | COC1OC2COC(c3ccccc3)OC2C(O)C1OC(=S)c1ccccc1 (stereo unspecified) | 67 µM | 87.1 µM | > 100 µM | 36.5 µM | > 100 µM | > 100 µM
23 | OCCCc1ccc2c(c1)[C@H](CO)[C@@H](c1ccc(O)cc1)O2 | > 100 µM | > 100 µM | > 100 µM | > 100 µM | > 100 µM | > 100 µM
24 | CO/N=C(/C(=O)OC)c1ccccc1COc1ccccc1C(F)(F)F | > 100 µM | 59.2 µM | > 100 µM | 50.3 µM | > 100 µM | > 100 µM
25 | C/C1=C\[C@H](C)C[C@H](C)OC(=O)[C@H](C)NC(=O)[C@@H](Cc2ccc(O)c(Br)c2)N(C)C(=O)[C@H](C)NC(=O)[C@@H](C)C1 | 1.04 µM | 0.117 µM | 3.84 µM | 0.604 µM | 4.9 µM | > 25 µM
26 | COc1cc(O)c2c(=O)c(OC)c(-c3ccc(OC)c(O)c3)oc2c1 | > 100 µM | > 100 µM | > 100 µM | > 100 µM | > 100 µM | > 100 µM
27 | CC1=C(C#N)c2nc3ccccc3n2C(=O)C1(C)CCO (stereo unspecified) | > 100 µM | > 100 µM | > 100 µM |  | > 100 µM | > 100 µM
28 | COc1ccc2oc(=N)c(C(=O)Nc3ccccc3)cc2c1 | > 100 µM | 51.6 µM | > 100 µM | 83 µM | 43.9 µM | 
29 | Cc1cc(C[C@H]2O[C@@H]3OC(C)(C)O[C@@H]3[C@H]3OC(C)(C)O[C@H]32)c2ccccc2n1 | > 100 µM | > 100 µM |  | > 100 µM | > 100 µM | > 100 µM
30 | C[C@@H]1CC[C@H]2[C@H]1[C@H]1[C@@H](CC[C@]2(C)N=C=S)C1(C)C |  |  | 42.9 µM | 43.4 µM | 46.9 µM | 42.6 µM
